In US20110218229A1, “SIRT1 Modulation of Adipogenesis and Adipose Function” (priority 2003, published 2011):

What was measured:
[1] = tested on: primary rat white adipocytes; test: FFA release triggered by adrenalin in primary white adipocytes; type: cell-based; details: with adrenalin
From the text: To determine whether Sirt1 stimulates fat mobilization in bona fide adipocytes, we cultured primary rat white adipocytes and activated fat mobilization with the known β-adrenergic inducer adrenalin. […] In a converse experiment using these rat adipocytes, we addressed whether inhibition of Sirt1 would blunt the mobilization of fat by adrenalin. Addition of the known Sirt1 inhibitor nicotinamide 16 indeed reduced the release of FFA triggered by adrenalin. The above findings indicate that Sirt1 not only represses the differentiation program of adipocytes, but also activates the mobilization of fat in fully differentiated cells.
Cell culture, retroviral infection and transfection. 3T3-L1, HEK293, 293T and Phoenix cells (ATCC, Rockville, Md.) were cultured in Dulbecco's modified Eagle's medium with 10% FCS, and antibiotics. Primary adipocytes from Sprague-Dawley rats were prepared as described previously 25. Transfections for luciferase assays were done as described using pSPORT6-PPAR-γ2, pGL3-PPRE26 and pcDNA3-Sirt1. Data were corrected for transfection efficiency.

3T3-L1 adipocytes [2] = test: Fat content by staining in fully differentiated 3T3-L1 cells; type: cell-based, mouse
Method: (§1) We fully differentiated 3T3-L1 cells and subsequently (12 days after induction) applied the Sirt1 activator resveratrol over a wide range of concentrations. […] To validate further these visual results, we measured triglyceride content and free fatty acid (FFA) release in these cells.
(§2) To stimulate adipogenesis and accumulation of lipids in cells, medium was supplemented to confluent cells (day 0) with 2 μM insulin or 10^−7M rosiglitazone (Alexis Biochemicals), as stated in the text, 1 μM dexamethasone, and 0.25 mM isobuthylmethylxanthine (IBMX) for 2 days. The cells were then incubated with insulin or 10^-7 M rosiglitazone, changing the medium every second day. Fat accumulation was visualized by staining of lipids with Oil red O. Intracellular triglyceride levels were measured in cell lysates by an enzymatic method using a reagent kit from Boehringer Mannheim.

3T3-L1 adipocytes [3] = test: Triglyceride content in fully differentiated 3T3-L1 cells; type: cell-based, mouse; details: control cells
Method: as §1, §2

UCP1 = UCP1 expression in BAT cells; type: cell-based
From the text: Further observations were made. A mouse genetically deficient for SIRT1 activity cannot regulate body temperature in the cold. The mouse appears unable to induce the UCP1 gene or related transcriptional programs. We used chromatin immunoprecipitations to characterize genes which may include regulatory sequences that are directly or indirectly bound by SIRT1. We discovered that, at least in brown fat cells, the UCP1 promoter is bound by SIRT1. SIRT1 responds to stress and activates UCP1 transcription. At least in part, the transcriptional activation is a result of the PGC1 co-factor, which is present in BAT cells, but absent in WAT cells, PGC1 modifies SIRT1 from a repressor to an activator. PGC1, SIRT1, and PPARγ are able to form a ternary complex which functions as a transcriptional activator. SIRT1 may have a similar function in other cells that express PGC1, e.g., muscle and liver cells. Moreover, resveratrol increases UCP1 expression in BAT cells.

3T3-L1 adipocytes [4] = test: Free fatty acid (FFA) release in fully differentiated 3T3-L1 cells; type: cell-based, mouse
Method: as §1
Wild-type FVB male age-matched (12-16 weeks old) mice were used for the present studies. Sirt1+/+ and Sirt1+/− genotypes have been described previously 21. All mice were housed under controlled temperature (25±1° C.) and lighting conditions. Food provided was normal chow. All mice were cared for in accordance with the MIT animal care committee. Blood was collected from the retro-orbital sinus and kept on ice until centrifugation (1,500 g, 15 min at 4° C.), and the plasma was stored at −20° C. until analysis. All animals were killed by decapitation. WAT depots were collected, weighed and quickly frozen in liquid nitrogen and stored at −70° C. until further processing by immunoblotting. Non-esterified free fatty acids were determined by enzymatic assays (Wako Pure Chemical Industries).

3T3-L1 cells = test: Mitotic divisions after induction (BrdU incorporation) in 3T3-L1; type: cell-based, mouse
From the text: We evaluated whether the mammalian Sir2 orthologue, Sirt1, senses nutrient availability in WAT and mediates corresponding effects on fat accumulation. To probe whether Sirt1 may actually modulate adipogenesis, we used mouse 3T3-L1 fibroblasts as an in vitro model. Adipogenesis in these cells is promoted by the nuclear receptor PPAR-γ. Upon induction of adipogenesis by insulin, dexamethasone and isobutylmethylxanthine, we observed that Sirt1, protein levels increased and peaked at day 5 after hormonal stimulation. […] 3T3-L1 cells undergo one or two mitotic divisions after induction as a prelude to terminal differentiation.

SIRT1 = SIRT1 expression in transformed 3T3-L1 fibroblasts (Western Blot); type: cell-based, mouse; details: for SIRT1 expression level versus control fibroblasts: Western Blot, actin control
Method: Samples of inguinal, epididymal, and retroperitoneal WAT were taken from the mice and subjected to Western Blot analyses using actin as a control to determine if SIRT1 was expressed in each of the three samples. Protein samples were prepared from WAT adipocytes by lysis in RIPA buffer supplemented with protease inhibitors. Twenty micrograms of protein were resolved in 9% SDS-PAGE and transferred to nitrocellulose membranes. SIRT1 protein was probed with mSIRT1 antibody (Upstate Inc.) and detected by ECL (Amersham). An actin antibody (Santa Cruz) was used in the Western Blot as a control. Pronounced SIRT1 expression levels were detected in each of the three WAT samples.
(§3) 3T3-L1 fibroblasts were transformed through standard techniques with either a pBABE control vector (“control fibroblasts”) or a vector comprising pBABE-mSIRT1 cDNA (“mSIRT1 cDNA fibroblasts”). Western Blot analyses of SIRT1 expression by the control and mSIRT1 cDNA fibroblasts were performed using antibodies and actin control as in Example 1.
(§4) 3T3-L1 fibroblasts were transformed with either a pSUPER control vector (“control fibroblasts”), a vector comprising pSUPER-mSIRT1 RNAi WT (SEQ ID NO: 24) (“mSIRT1 RNAi WT fibroblasts”), or pSUPER-mSIRT1 RNAiMUT (SEQ ID NO: 25), (“mSIRT1 RNAiMUT fibroblasts”). Western Blot analyses of SIRT1 expression by the control, mSIRT1 RNAi WT, and mSIRT1 RNAiMUT fibroblasts were performed using antibodies and actin controls as in Example 1.
Retroviral infection was performed as described in Tontonoz et al. (1994) Cell 79:1147. Phoenix cells were transfected with either pBABE, pBABE-Sirt1, pSUPERretro (Oligoengine), pSUPERretro-Sirt1 RNAi (5′-GATGAAGTTGACCTCCTCA-3′, SEQ ID NO:24) or pSUPER-NCoR RNAi (5′-GCTGCATCCAAGGGCCATG-3′, SEQ ID NO:25) using Lipofectamine (Invitrogen). After 48 h of transfection, the medium containing retroviruses was collected, filtered, treated by polybrene (1 μg ml^−1) and transferred to 3T3-L1 target cells. Infected cells were selected with puromycin (2.5 μg ml^−1) for 7 days.

[5] = tested on: C/EBPβ, C/EBPδ, C/EBPα, PPARγ, aP2; test: Adipogenesis transcription factor levels in 3T3-L1 (Western Blot, semi-quantitative RT-PCR); type: cell-based, mouse
Method: 3T3-L1 fibroblasts were transformed through standard techniques with either a pBABE control vector (“control fibroblasts”) or a vector comprising pBABE-mSIRT1 cDNA (“mSIRT1 cDNA fibroblasts”) in accordance with Example 4. Protein and total RNA was extracted from the differentiated cells. Western Blot analyses of levels of the PPARγ and C/EBPα transcription factors present in the protein extracts from the control and mSIRT1 cDNA fibroblasts were performed using antibodies and actin control as in Example 1.
Semi-quantitative RT-PCR analysis was also conducted to determine levels of the C/EBPβ, C/EBPδ, C/EBPα, PPARγ transcription factors and aP2 (PPARγ target gene) present in the protein and total RNA extracted from the control and mSIRT1 cDNA fibroblasts. In this analysis, GAPDH was used as an internal control for cDNA input in the PCR.
3T3-L1 fibroblasts were transformed through standard techniques with either a pSUPER control vector (“control fibroblasts”) or a vector comprising pSUPER-mSIRT1 RNAiWT ([…]) (“mSIRT1 RNAiWT fibroblasts”) in accordance with Example 5. Protein and total RNA was extracted from the differentiated cells. […]
Semi-quantitative RT-PCR analysis was also conducted to determine levels of the C/EBPβ, C/EBPδ, C/EBPα, PPARγ, and aP2 (PPARγ target gene) present in the protein and total RNA extracted from the control and mSIRT1RNAiWT fibroblasts. […]

3T3-L1 fibroblasts [6] = test: 3T3-L1 adipogenesis / differentiation (Oil Red O staining); type: cell-based, mouse
Method: The 3T3-L1 mouse fibroblasts used in this example, and in Examples 4-10 hereinafter, were prepared in accordance with standard protocol as follows. 3T3-L1 cells (ATCC CL-173, Rockville, Md.) were grown to confluence (day 0) in medium A (Dulbecco's modified Eagle's Medium with 10% fetal calf serum, 100 units/ml penicillin, and 100 μg/ml streptomycin). Confluent cell were incubated in medium A containing 2 μM insulin, 1 μM dexamethasone, and 0.25 mM isobuthyl methyl xanthine for two days. Thereafter, confluent fibroblasts were treated with insulin for five days and at the end of such treatment were in a condition for functional study. Adipogenesis was evaluated by analysis of the expression of adipocyte-specific markers and by staining of lipids with Oil Red O (Chawla & Lazar, 1994, Proc. Natl. Acad. Sci. USA 91, 1786-1790).
as §3, §4
as §2, with “The cells were then incubated with insulin or 10^-7 M rosiglitazone, changing the medium every second day.” left out

3T3-L1 fibroblasts [7] = test: Intracellular triglyceride levels in transformed 3T3-L1; type: cell-based, mouse; details: day 7, Folch extraction, six wells per condition
Method: Fibroblast intracellular trigylceride (“TG”) levels should decrease upon inhibition of fibroblast differentiation resulting from overexpression of SIRT1. Consistent with Examples 4 and 5, it should be possible to measure in a quantitative manner the amount of intracellular triglycerides that can be observed by Oil Red O staining. To do so, 3T3-L1 fibroblasts were prepared as in Example 3 and transformed as in Examples 4 and 5 with either pBABE control vector (“pBABE control fibroblasts”), pBABE-mSIRT1 cDNA (“mSIRT1 cDNA fibroblasts”), pSUPER control vector (“pSUPER control fibroblasts”), or pSUPER-mSIRT1 RNAi WT (SEQ ID NO: 24) (“mSIRT1 RNAi WT fibroblasts”).
At day 7, the cells were lysed in methanol and neutral lipids were extracted by the Folch method and resuspended in isopropanol. Triglyceride levels were measured by calorimetric methods using a commercial kit (Trig/GB #450032, Roche Diagnostics, Indianapolis, Ind.). Six wells per condition were analyzed.

3T3-L1 fibroblasts [8] = test: Isoproterenol-induced lipolysis in 3T3-L1 (fatty acid concentration); type: cell-based, mouse; details: day 7, isoproterenol (10^−5M), four hours; controls 0.627 mM (pBABE) and 0.508 mM (pSUPER)
Method: The amount of fat generated by adipocyte lipolysis should be proportional to the fat content of the adipocyte. In the experiment of this example, four samples of 3T3-L1 fibroblasts were prepared essentially as in Example 3 (except for the change in protocol noted below), and transformed as in Examples 4 and 5 with either pBABE control vector (“pBABE control fibroblasts”), pBABE-mSIRT1 cDNA (“mSIRT1 cDNA fibroblasts”), pSUPER control vector (“pSUPER control fibroblasts”), or pSUPER-mSIRT1 RNAi WT (SEQ ID NO: 24) (“mSIRT1 RNAi WT fibroblasts”).
Fatty acid concentrations in each of the four samples were measured four hours later and the results of these measurements are shown in FIG. 1. Six wells were used for each of the four samples. Results from the different wells were averaged.

Compound: NC(=O)c1cccnc1 [nicotinamide]
- release of FFA triggered by adrenalin [1]: reduced

Compound: Oc1ccc(/C=C/c2cc(O)cc(O)c2)cc1 [resveratrol, 3,5,4′-trihydroxy-tans-stilbene]
- fat content after staining (3T3-L1 adipocytes [2]; cells in which Sirt1 levels were knocked down): no drug-mediated fat reduction
- fat content after staining (3T3-L1 adipocytes [2]; fully differentiated 3T3-L1 cells, 12 days after induction, 50 and 100 μM resveratrol): strong reduction in fat
- release of FFA triggered by adrenalin [1]: greatly stimulated
- triglyceride content (3T3-L1 adipocytes [3]): reduced
- UCP1 expression (UCP1): increases
- release of FFA (3T3-L1 adipocytes [4]; Sirt1 knockdown cells): but not in the Sirt1 knockdown cells
- release of FFA (3T3-L1 adipocytes [4]; control cells): stimulated

Compound: mSIRT1 RNAi WT: pSUPER vector with RNAi sequence 5′-GATGAAGTTGACCTCCTCA-3′ (SEQ ID NO: 24), interferes with SIRT1 expression
- mitotic divisions after induction (3T3-L1 cells): occurred normally
- change of Sirt1 gene expression (SIRT1; retroviral infection of 3T3-L1 cells): downregulation (sevenfold)
- PPARγ levels versus control fibroblasts ([5]; Western Blot of extracts from differentiated cells): Higher levels of PPARγ
- levels of C/EBPβ, C/EBPδ, C/EBPα, PPARγ and aP2 ([5]; semi-quantitative RT-PCR, GAPDH internal control): increased levels of all of the assayed transcription factors except C/EBPβ
- fat / triglyceride accumulation versus control vector (3T3-L1 fibroblasts [6]; Oil red O staining after 7 days of differentiation or intracellular triglyceride content): significant increase in triglyceride accumulation
- differentiation by Oil Red O staining versus control fibroblasts (3T3-L1 fibroblasts [6]; transformed 3T3-L1 fibroblasts): marked increase in differentiation
- TG levels versus respective control (3T3-L1 fibroblasts [7]): higher
- lipolysis level (fatty acid concentration) (3T3-L1 fibroblasts [8]): 0.727 mM

Compound: mSIRT1 RNAiMUT: mutation of mSIRT1 RNAiWT, 5′-GATGAAGTCGACCTCCTCA-3′ (SEQ ID NO: 25) (expressed or natural sequence)
- SIRT1 expression level versus control fibroblasts (SIRT1): comparable with those of the control fibroblasts
- SIRT1 expression level versus control fibroblasts (SIRT1; listed as SIRT1 mRNAi-mut): no effect on SIRT1 expression

Compound: NCoR RNAi: pSUPER-NCoR RNAi virus, 5′-GCTGCATCCAAGGGCCATG-3′
- reduction of fat accretion by Sirt1 overexpression (3T3-L1 fibroblasts [6]; Sirt1-overexpressing 3T3-L1 fibroblasts infected with NCoR RNAi virus): largely prevented
